The values that follow come from patent US10624875B2, “Methods and compositions for treating schizophrenia” (The Johns Hopkins University, priority 2012, dated 2020).

The structures appear in SMILES notation. Several values for one entry are separate records, joined by “and”; a condition that tells them apart may be missing. Equal entries are not always repeated.

The subject of experiment [1] is aMCI subjects. As to the kind of experiment: Verbal Paired Associates Test - Delayed Recall. It counts as in vivo, human. The following applies: 125 mg twice a day for two weeks. On the procedure: (§1) A within-subjects trial of 8 weeks duration, involving 17 amnestic MCI (aMCI) subjects and 17 age-matched controls with a low dose treatment of levetiracetam is conducted. During the course of the study, each aMCI subject receives both drug and placebo treatments separately in two periods of two weeks each, with the order of treatments among different aMCI subjects counterbalanced (see FIG. 7). Age-matched control subjects treated with placebo serve as a further control. Cognitive testing and fMRI imaging data are obtained from the subjects after each two week period of drug/placebo treatment.
(§2) All participants undergo neuropsychological evaluation at the time of assessment for treatment efficacy (Visits 1 and 2), as well as at the Baseline Visit. […]
(§3) As described above, the drug treatment period is the two weeks preceding Visit 1 or 2 (with the two week period preceding the other Visit being the placebo phase). For the subjects receiving the drug treatment, half a scored 250 mg tablet of levetiracetam is used to achieve a dose of […], which is approximately 3.6 mg/kg/day (assuming an average adult human weight of 70 kg).

The test system of a further experiment is aged-impaired (AI) rats. Description: eight-arm Radial Arm Maze (RAM) task with one-hour delay, spatial memory retention. The experiment is classed as in vivo, rat. The procedure: The effects of levetiracetam on the spatial memory retention of aged-impaired (AI) rats were assessed in a Radial Arm Maze (RAM) behavioral task using vehicle control and five different dosage levels of levetiracetam (1.25 mg/kg/day, 2.5 mg/kg/day, 5 mg/kg/day, 10 mg/kg/day and 20 mg/kg/day). RAM behavioral tasks were preformed on ten AI rats. All six treatment conditions were tested on all ten rats, as described above for the MWM test. The RAM apparatus used consisted of eight equidistantly-spaced arms. An elevated maze arm (7 cm width×75 cm length) projected from each facet of an octagonal center platform (30 cm diameter, 51.5 cm height). Clear side walls on the arms were 10 cm high and were angled at 65° to form a trough. A food well (4 cm diameter, 2 cm deep) was located at the distal end of each arm. Froot Loops™ (Kellogg Company) were used as rewards. Blocks constructed of Plexiglas™ (30 cm height×12 cm width) could be positioned to prevent entry to any arm. Numerous extra maze cues surrounding the apparatus were also provided. The AI rats were initially subjected to a pre-training test (Chappell et al. Neuropharmacology 37: 481-487, 1998). The pre-training test consisted of a habituation phase (4 days), a training phase on the standard win-shift task (18 days) and another training phase (14 days) in which a brief delay was imposed between presentation of a subset of arms designated by the experimenter (e.g., 5 arms available and 3 arms blocked) and completion of the eight-arm win-shift task (i.e., with all eight arms available). In the habituation phase, rats were familiarized to the maze for an 8-minute session on four consecutive days. In each of these sessions food rewards were scattered on the RAM, initially on the center platform and arms and then progressively confined to the arms. After this habituation phase, a standard training protocol was used, in which a food pellet was located at the end of each arm. Rats received one trial each day for 18 days. Each daily trial terminated when all eight food pellets had been obtained or when either 16 choices were made or 15 minutes had elapsed. After completion of this training phase, a second training phase was carried out in which the memory demand was increased by imposing a brief delay during the trial. At the beginning of each trial, three arms of the eight-arm maze were blocked. Rats were allowed to obtain food on the five arms to which access was permitted during this initial ‘information phase’ of the trial. Rats were then removed from the maze for 60 seconds, during which time the barriers on the maze were removed, thus allowing access to all eight arms. Rats were then placed back onto the center platform and allowed to obtain the remaining food rewards during this ‘retention test’ phase of the trial. The identity and configuration of the blocked arms varied across trials. The number of “errors” the AI rats made during the retention test phase was tracked. An error occurred in the trial if the rats entered an arm from which food had already been retrieved in the pre-delay component of the trial, or if it re-visited an arm in the post-delay session that had already been visited. After completion of the pre-training test, rats were subjected to trials with more extended delay intervals, i.e., a one-hour delay, between the information phase (presentation with some blocked arms) and the retention test (presentation of all arms). […]

The test system of experiment [2] is aMCI subjects. Description: Buschke Selective Reminding Test - Delayed Recall. The following applies: 125 mg twice a day for two weeks. The experiment is classed as in vivo, human. On the procedure: as §1
All participants undergo neuropsychological evaluation at the time of assessment for treatment efficacy (Visits 1 and 2), as well as at the Baseline Visit. The evaluation occurs outside of the scanner and includes the Buschke Selective Reminding Test (Buschke and Fuld, 1974) and the Verbal Paired Associates subtest, the Logical Memory subtest, the Visual Reproduction subtest of the Wechsler Memory Scale-Revised (WMS-R) (Wechsler, 1997), and the Benton Visual Retention Test, as these tasks are particularly sensitive to medial temporal lobe function and early memory problems (Marquis et al., 2002 and Masur et al., 1994). […]

Experiment [3] has as its system aMCI subjects. As to the kind of experiment: Benton Visual Retention Test. The experiment is classed as in vivo, human. The conditions noted are these: 125 mg twice a day for two weeks. On the procedure: as §1, §2, §3
Where [4] appears, read: drug on its own (levetiracetam i.p., valproate subcutaneous).

Regarding `CC[C@@H](C(N)=O)N1CCCC1=O` [levetiracetam, (2S)-2-(2-oxopyrrolidin-1-yl) butanamide], in the experiment with aMCI subjects [1], the “performance in Verbal Paired Associates Test - Delayed Recall” value is listed as “fail to rescue performance”. Besides, the “performance in the radial maze task” value with aged-impaired (AI) rats (20 mg/kg) is given as “fails to improve the performance”. Also, in the experiment on aged-impaired (AI) rats (setting [4]), the “dose effective in reducing the number of errors” value was in the range of 5 to 10 mg/kg; the “dose not effective in reducing the number of errors” value is 1.25 mg/kg and 2.5 mg/kg. The “performance in Buschke Selective Reminding Test - Delayed Recall” value with aMCI subjects [2] was “fail to rescue performance”. Moreover, the “performance in Benton Visual Retention Test” value in the experiment with aMCI subjects [3] was “fail to rescue performance”.
